According to patent US20090176817A1, “Method of Treatment of Diarrhea-Predominant Irritable Bowel Syndrome in a Subject” (priority 2005, published 2009):

Assays:
[1] = system: patients with malignant tumors; test: Study K.241.5017: cisplatin-induced nausea and vomiting; type: in vivo, human; settings: IV 8 mg TID
Description: The effect of cilansetron on nausea and vomiting has been studied in 2 clinical studies in cancer patients. Both studies were randomized, singleblind, positive-controlled, parallel-group, pilot studies in male and female patients with malignant tumors, to investigate the effect of cilansetron on cytostatic-induced nausea and vomiting. In both studies, patients were on their first cycle of chemotherapy and were being treated with cisplatin (275 mg/m2 as a single dose in Study S.24 1.2.10 1 and […] for 5 days in Study K.24 1 S O 17). Patients in Study S.24 1.2.10 1 were aged 40-74 years (ITT population=16) and patients in Study K.24 1 S O 17 were aged 39-74 years (ITT population=19). In both studies, patients were randomized to receive either […] or IV ondansetron 8 mg TID for 1 day (Study S.241.2.101) or 5 days (Study K.2415017), corresponding to the day(s) of their cisplatin administration. If nausea and vomiting were completely controlled on a treatment day, the second and/or third doses of cilansetron or ondansetron could be omitted on that day. The primary efficacy parameter in both studies was the combination of the occurrence of vomiting and the severity of nausea, with a responder being defined as a patient with no vomiting and not more than mild nausea during the treatment day(s). […]

[2] = male, human, in vivo
Description: Subjects were treated with a single oral dose of cilansetron 8 mg (tablet) on Day 1, followed by 8 mg TID for 5 days (Days 2-6) and a single 8 mg dose on the morning of Day 7. Young subjects ranged in age from 19-45 years, and elderly from 66-79 years. Serial blood samples were collected up to 24 hours postdose on Days 1 and 7, and cilansetron pharmacokinetic parameters were calculated. Doses on pharmacokinetic sampling days were administered under fasted conditions.
Young subjects ranged in age from 19-45 years, and elderly from 66-79 years. Serial blood samples were collected up to 24 hours postdose on Days 1 and 7, and cilansetron pharmacokinetic parameters were evaluated. Doses on pharmacokinetic sampling days were administered under fasted conditions.

[3] = system: healthy, elderly subjects; test: Study K.241.5013: colonic transit time, elderly, 4 mg TID; type: in vivo, human; settings: 4 mg TID oral 14 days, mean (SD)
Description: The effect of cilansetron on gastric emptying time and colonic transit time has been studied in 1 clinical study in healthy young subjects and 2 studies in elderly subjects. For measurement of gastric emptying time, breath samples for the determination of the ^12C/^13C ratio were taken on the last day of each treatment period immediately after ingestion of a ^13C labeled meal. The patients' breath was collected in separate 15-minute intervals, for four hours in total. ^13CO2 measurements were performed with an isotope ratio mass spectrometer. The half-life (TK) and lag-time (Tlag), which describe the duration of gastric emptying, were used as the primary parameters to evaluate gastric emptying time. In all 3 studies, colonic transit time was measured by administration of radio-opaque markers for the last six days of each treatment period, followed by a single abdominal X-ray image at 24 hours after ingestion of the last set of markers. The numbers of markers within the colon were used to calculate segmental (right colon, left colon, and rectosigmoid) and total colonic transit time.
Studies K.241.5013 and K.241.5014 were randomized, double-blind, placebo-controlled, 2-way crossover studies in 8 healthy male and female elderly subjects, each (ITT population, aged 64-83 years in K.241.5013 and 66-84 years in K.241.5014). Elderly subjects were selected for these studies because they commonly suffer from constipation and it was of interest whether cilansetron would prolong gastrointestinal transit times in this population. Subjects received cilansetron 4 mg or placebo in Study K.241.5013 and cilansetron 8 mg or placebo in Study K.241.5014. Treatments were administered orally TID for 14 days during each period, with a 14-day washout between periods. The primary efficacy parameter was the total mean colonic transit time during each treatment and the secondary parameters were the segmental colonic transit times and the gastric emptying measurements. One-sided t-tests were used to compare efficacy parameters between the cilansetron and placebo treatments.

[4] = both, human, in vivo
Description: In a single-dose, crossover study conducted to evaluate the potential for a drug-drug interaction between liquid Maalox and cilansetron, 12 male and 12-female subjects (aged 19-39 years) received single doses of cilansetron 16 mg alone and cilansetron 16 mg+Maalox in a crossover fashion under fasted conditions. Blood samples for measurement of plasma cilansetron pharmacokinetics were collected up to 24 hours postdose following each treatment.
The effect of concomitantly administered antacid (liquid Maalox) on the pharmacokinetics of cilansetron has been evaluated in a single-dose, crossover study in 24 healthy, male and female subjects, aged 19 to 39 years. Subjects received the following two treatments during each of the study periods in a crossover fashion: a single oral dose of cilansetron 16 mg tablet (reference treatment); a single oral dose of cilansetron 16 mg tablet+20 mL oral Maalox liquid administered every 4 hours (test treatment; 4 doses of Maalox in total; cilansetron was administered 5 minutes after the first dose of Maalox). Both cilansetron treatments were administered under fasted conditions.

Cc1nccn1C[C@H]1CCc2c(c3cccc4c3n2CCC4)C1=O [Cilansetron, (R)-(−)-4,5,6,8,9,10-hexahydro-10-[(2-methyl-1H-imidazol-1-yl)methyl]-11H-pyrido-[3,2,1-jk]-carbazol-11-one]
Response rate [1]: 21.4%
AUC(0-inf) [2]: 252 (123) ng · h/mL
Transit Times, Colon Total [3]: 55.5 (41.3) hours
Transit Times, Colonic Segments Left [3]: 21.9 (16.0) hours
Transit Times, Colonic Segments Rectosigmoid [3]: 6.3 (8.3) hours
Transit Times, Colonic Segments Right [3]: 27.3 (29.2) hours
AUC (0-inf) Ratio (Treatment B/A) [4]: 100%
AUC (0-last) Ratio (Treatment B/A) [4]: 100%
Cmax Ratio (Treatment B/A) [4]: 87%
AUC and Cmax lower in males than in females ([4]; 16 mg): 56%
Mean Cmax decrease with Maalox ([4]; 16 mg): 13%
Mean half-life lower in males than in females ([4]; 16 mg): 41%
